Measured values reported in patent US10947271B2, “Antibacterial agents” (THE UNIVERSITY OF QUEENSLAND, priority 2014, dated 2021).

Key:
Format in all cases: cell-based
Conditions in all cases: 24 h incubation, visual reading
[1] = tested on: Staphylococcus aureus MRSA ATCC 43300; assay: MIC assay, S. aureus MRSA ATCC 43300
Method in brief: (§1)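 Mid-log cultures in MHB were added at 5×10e5 CFU/mL to compounds diluted twofold from 8 to 0.003 μg/ml. Visual inspection after 24 h incubation at 37° C. gave the MIC, the lowest concentration without visible growth.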

[2] = tested on: Streptococcus pneumoniae MDR ATCC 700677; assay: MIC assay, S. pneumoniae MDR ATCC 700677
Method in brief: as §1

[3] = tested on: Enterococcus faecium MDR Van A ATCC 51559; assay: MIC assay, E. faecium MDR Van A ATCC 51559
Method in brief: as §1

Row | SMILES | Minimum Inhibitory Concentration (MIC) Staph. aureus ATCC43300 [1] | Minimum Inhibitory Concentration (MIC) S. pneumoniae ATCC 700677 [2] | Minimum Inhibitory Concentration (MIC) E. faecium ATCC51559 [3]
1 | CCCCCCCCCCCCC(=O)NC(CCCCN)C(=O)NC(CCCCN)C(=O)NC(CCCCNC(=O)C1NC(=O)C2NC(=O)C(NC(=O)C3NC(=O)C(CC(N)=O)NC(=O)C(NC(=O)C(CC(C)C)NC)C(O)c4ccc(c(Cl)c4)Oc4cc3cc(c4OC3OC(CO)C(O)C(O)C3OC3CC(C)(N)C(O)C(C)O3)Oc3ccc(cc3Cl)C2O)c2ccc(O)c(c2)-c2c(O)cc(O)cc21)C(=O)NC (stereo not drawn) [MCC_000494] | xxxxx (xxxxx = <0.01) | xxxxx (xxxxx = <0.01) | xx (xx = 1-4)
2 | CCCCCCc1ccc(C(=O)NC(CCCCN)C(=O)NC(CCCCN)C(=O)NC(CCCCNC(=O)C2NC(=O)C3NC(=O)C(NC(=O)C4NC(=O)C(CC(N)=O)NC(=O)C(NC(=O)C(CC(C)C)NC)C(O)c5ccc(c(Cl)c5)Oc5cc4cc(c5OC4OC(CO)C(O)C(O)C4OC4CC(C)(N)C(O)C(C)O4)Oc4ccc(cc4Cl)C3O)c3ccc(O)c(c3)-c3c(O)cc(O)cc32)C(=O)NC)cc1 (stereo not drawn) [MCC_000499] | xxxx (xxxx = 0.01-<0.1) | xxxx (xxxx = 0.01-<0.1) | xx (xx = 1-4)
3 | CCCCCCCCCCCCCC(=O)N[C@@H](CCCCN)C(=O)N[C@@H](CCCCN)C(=O)N[C@@H](Cc1cn(CCCNC(=O)[C@H]2NC(=O)[C@H]3NC(=O)[C@H](NC(=O)[C@@H]4NC(=O)[C@H](CC(N)=O)NC(=O)[C@H](NC(=O)[C@@H](CC(C)C)NC)[C@H](O)c5ccc(c(Cl)c5)Oc5cc4cc(c5O[C@@H]4O[C@H](CO)[C@@H](O)[C@H](O)[C@H]4O[C@H]4C[C@](C)(N)[C@H](O)[C@H](C)O4)Oc4ccc(cc4Cl)[C@H]3O)c3ccc(O)c(c3)-c3c(O)cc(O)cc32)nn1)C(N)=O [MCC_000979] | xxxxx (xxxxx = <0.01) | xxxxx (xxxxx = <0.01) | xxx (xxx = 0.1-<1)
4 | CCCCCCCCCN1CCC(C(=O)N[C@@H](CCCCN)C(=O)N[C@@H](CCCCN)C(=O)NCCCNC(=O)[C@H]2NC(=O)[C@H]3NC(=O)[C@H](NC(=O)[C@@H]4NC(=O)[C@H](CC(N)=O)NC(=O)[C@H](NC(=O)[C@@H](CC(C)C)NC)[C@H](O)c5ccc(c(Cl)c5)Oc5cc4cc(c5O[C@@H]4O[C@H](CO)[C@@H](O)[C@H](O)[C@H]4O[C@H]4C[C@](C)(N)[C@H](O)[C@H](C)O4)Oc4ccc(cc4Cl)[C@H]3O)c3ccc(O)c(c3)-c3c(O)cc(O)cc32)CC1 [MCC_000937] | xxxx (xxxx = 0.01-<0.1) | xxxx (xxxx = 0.01-<0.1) | xx (xx = 1-4)
5 | CCCCCCCCCCCCC(=O)N[C@@H](CCCCN)C(=O)N[C@@H](CCCCN)C(=O)N[C@@H](CCCCN)C(=O)N[C@@H](CCCCNC(=O)[C@H]1NC(=O)[C@H]2NC(=O)[C@H](NC(=O)[C@@H]3NC(=O)[C@H](CC(N)=O)NC(=O)[C@H](NC(=O)[C@@H](CC(C)C)NC)[C@H](O)c4ccc(c(Cl)c4)Oc4cc3cc(c4O[C@@H]3O[C@H](CO)[C@@H](O)[C@H](O)[C@H]3O[C@H]3C[C@](C)(N)[C@H](O)[C@H](C)O3)Oc3ccc(cc3Cl)[C@H]2O)c2ccc(O)c(c2)-c2c(O)cc(O)cc21)C(=O)O [MCC_000350] | xxxxx (xxxxx = <0.01) | xxxxx (xxxxx = <0.01) | xxx (xxx = 0.1-<1)
6 | CCCCCCCCCC(=O)N[C@@H](CCCNC(=N)N)C(=O)N[C@@H](CCCNC(=N)N)C(=O)NCCCNC(=O)[C@H]1NC(=O)[C@H]2NC(=O)[C@H](NC(=O)[C@@H]3NC(=O)[C@H](CC(N)=O)NC(=O)[C@H](NC(=O)[C@@H](CC(C)C)NC)[C@H](O)c4ccc(c(Cl)c4)Oc4cc3cc(c4O[C@@H]3O[C@H](CO)[C@@H](O)[C@H](O)[C@H]3O[C@H]3C[C@](C)(N)[C@H](O)[C@H](C)O3)Oc3ccc(cc3Cl)[C@H]2O)c2ccc(O)c(c2)-c2c(O)cc(O)cc21 [MCC_005482] | xxxxx (xxxxx = <0.01) | xxxxx (xxxxx = <0.01) | xx (xx = 1-4)
7 | CCCCCCCNc1ccc(C(=O)N[C@@H](CCCCN)C(=O)N[C@@H](CCCCN)C(=O)N[C@@H](CCCCNC(=O)[C@H]2NC(=O)[C@H]3NC(=O)[C@H](NC(=O)[C@@H]4NC(=O)[C@H](CC(N)=O)NC(=O)[C@H](NC(=O)[C@@H](CC(C)C)NC)[C@H](O)c5ccc(c(Cl)c5)Oc5cc4cc(c5O[C@@H]4O[C@H](CO)[C@@H](O)[C@H](O)[C@H]4O[C@H]4C[C@](C)(N)[C@H](O)[C@H](C)O4)Oc4ccc(cc4Cl)[C@H]3O)c3ccc(O)c(c3)-c3c(O)cc(O)cc32)C(N)=O)cc1 [MCC_004821] | xxxx (xxxx = 0.01-<0.1) | xxxx (xxxx = 0.01-<0.1) | xx (xx = 1-4)
8 | CCCCCCCC(=O)N[C@@H](CCCCN)C(=O)N[C@@H](CCCCN)C(=O)N[C@@H](CCCCNC(=O)[C@H]1NC(=O)[C@H]2NC(=O)[C@H](NC(=O)[C@@H]3NC(=O)[C@H](CC(N)=O)NC(=O)[C@H](NC(=O)[C@@H](CC(C)C)NC)[C@H](O)c4ccc(c(Cl)c4)Oc4cc3cc(c4O[C@@H]3O[C@H](CO)[C@@H](O)[C@H](O)[C@H]3O[C@H]3C[C@](C)(N)[C@H](O)[C@H](C)O3)Oc3ccc(cc3Cl)[C@H]2O)c2ccc(O)c(c2)-c2c(O)cc(O)cc21)C(=O)O [MCC_005225] | xx (xx = 1-4) | xx (xx = 1-4) | x (x = >4)
9 | CCCCCCCCCCCCCC(=O)N[C@@H](CCCCN)C(=O)N[C@@H](CCCCN)C(=O)NCCCNC(=O)[C@H]1NC(=O)[C@H]2NC(=O)[C@H](NC(=O)[C@@H]3NC(=O)[C@H](CC(N)=O)NC(=O)[C@H](NC(=O)[C@@H](CC(C)C)NC)[C@H](O)c4ccc(c(Cl)c4)Oc4cc3cc(c4O[C@@H]3O[C@H](CO)[C@@H](O)[C@H](O)[C@H]3O[C@H]3C[C@](C)(N)[C@H](O)[C@H](C)O3)Oc3ccc(cc3Cl)[C@H]2O)c2ccc(O)c(c2)-c2c(O)cc(O)cc21 [MCC_000345] | xxxxx (xxxxx = <0.01) | xxxxx (xxxxx = <0.01) | xxxx (xxxx = 0.01-<0.1)
10 | CCCCCCCCCCCCCC(=O)NCCCC[C@H](NC(=O)CCCCCCCCCCCCC)C(=O)N[C@@H](CCCCN)C(=O)N[C@@H](CCCCN)C(=O)N[C@@H](CCCCNC(=O)[C@H]1NC(=O)[C@H]2NC(=O)[C@H](NC(=O)[C@@H]3NC(=O)[C@H](CC(N)=O)NC(=O)[C@H](NC(=O)[C@@H](CC(C)C)NC)[C@H](O)c4ccc(c(Cl)c4)Oc4cc3cc(c4O[C@@H]3O[C@H](CO)[C@@H](O)[C@H](O)[C@H]3O[C@H]3C[C@](C)(N)[C@H](O)[C@H](C)O3)Oc3ccc(cc3Cl)[C@H]2O)c2ccc(O)c(c2)-c2c(O)cc(O)cc21)C(=O)NC [MCC_000771] | x (x = >4) | x (x = >4) | x (x = >4)
11 | CNC(CC(C)C)C(=O)NC1C(=O)NC(CC(N)=O)C(=O)NC2C(=O)NC3C(=O)NC(C(=O)NC(C(=O)NCCCCC(NC(=O)C(CCCCN)NC(=O)C(CCCCN)NC(=O)C(CCCCN)NC(=O)C(CCCCNC(=O)c4ccc(Oc5ccccc5)cc4)NC(=O)c4ccc(Oc5ccccc5)cc4)C(=O)O)c4cc(O)cc(O)c4-c4cc3ccc4O)C(O)c3ccc(c(Cl)c3)Oc3cc2cc(c3OC2OC(CO)C(O)C(O)C2OC2CC(C)(N)C(O)C(C)O2)Oc2ccc(cc2Cl)C1O (stereo not drawn) [MCC_000230] | xxxxx (xxxxx = <0.01) | xxxx (xxxx = 0.01-<0.1) | xxx (xxx = 0.1-<1)
12 | CCCCCCCCCCCCCC(=O)NC(CCCCN)C(=O)NC(CCCCN)C(=O)NC(CCCCN)C(=O)NC(CCCCNC(=O)C1NC(=O)C2NC(=O)C(NC(=O)C3NC(=O)C(CC(N)=O)NC(=O)C(NC(=O)C(CC(C)C)NC)C(O)c4ccc(c(Cl)c4)Oc4cc3cc(c4OC3OC(CO)C(O)C(O)C3OC3CC(C)(N)C(O)C(C)O3)Oc3ccc(cc3Cl)C2O)c2ccc(O)c(c2)-c2c(O)cc(O)cc21)C(=O)OC (stereo not drawn) [MCC_000635] | xxxxx (xxxxx = <0.01) | xxxxx (xxxxx = <0.01) | xxxxx (xxxxx = <0.01)
13 | CNC(=O)[C@H](CCCCNC(=O)[C@H]1NC(=O)[C@H]2NC(=O)[C@H](NC(=O)[C@@H]3NC(=O)[C@H](CC(N)=O)NC(=O)[C@H](NC(=O)[C@@H](CC(C)C)NC)[C@H](O)c4ccc(c(Cl)c4)Oc4cc3cc(c4O[C@@H]3O[C@H](CO)[C@@H](O)[C@H](O)[C@H]3O[C@H]3C[C@](C)(N)[C@H](O)[C@H](C)O3)Oc3ccc(cc3Cl)[C@H]2O)c2ccc(O)c(c2)-c2c(O)cc(O)cc21)NC(=O)[C@H](CCCCN)NC(=O)[C@H](CCCCN)NC(=O)[C@H](CCCCNC(=O)Cc1ccc(-c2ccccc2)cc1)NC(=O)Cc1ccc(-c2ccccc2)cc1 [MCC_000652] | xxxxx (xxxxx = <0.01) | xxxxx (xxxxx = <0.01) | xxx (xxx = 0.1-<1)
14 | CNc1ccc(C(=O)N[C@@H](CCCCN)C(=O)N[C@@H](CCCCN)C(=O)N[C@@H](CCCCNC(=O)[C@H]2NC(=O)[C@H]3NC(=O)[C@H](NC(=O)[C@@H]4NC(=O)[C@H](CC(N)=O)NC(=O)[C@H](NC(=O)[C@@H](CC(C)C)NC)[C@H](O)c5ccc(c(Cl)c5)Oc5cc4cc(c5O[C@@H]4O[C@H](CO)[C@@H](O)[C@H](O)[C@H]4O[C@H]4C[C@](C)(N)[C@H](O)[C@H](C)O4)Oc4ccc(cc4Cl)[C@H]3O)c3ccc(O)c(c3)-c3c(O)cc(O)cc32)C(N)=O)cc1 [MCC_004822] | xxx (xxx = 0.1-<1) | xx (xx = 1-4) | x (x = >4)
